Marks after values point to notes of the source that are not given here.
Key:
Format in all cases: in vivo
[1] = tested on: normal C57BL/6 mice; assay: glucose tolerance in normal C57BL/6 mice (Example 7); settings: 3 nmol/kg s.c. single dose, 72 h after dose, 2 g/kg glucose i.p.
[2] = tested on: normal C57BL/6 mice; assay: glucose tolerance in normal C57BL/6 mice (Example 8); settings: 3 nmol/kg s.c. single dose, 72 h after dose
Procedure: Experimental methods: Normal C57BL/6 mice were randomly divided into 6 groups (Vehicle group, Dulaglutide group, HEC-G113 group, HEC-G122 group, HEC-G126 group, HEC-G127 group) according to blood glucose and body weight, with 8 mice in each group. For the groups of Dulaglutide (Dulaglutide purchased from Eli Lilly, lot number was D256504), HEC-G113, HEC-G122, HEC-G126 and HEC-G127, the corresponding drug was injected subcutaneously into the mice at a dose of 3 nmol/kg, and for the control group, the corresponding vehicle was injected subcutaneously.
(§1) After 60 h of single administration, the mice were fasted for 12 h and drank water freely. Blood was collected from the tail vein to measure the basal blood glucose value of each group, then 2 g/kg of glucose solution was injected intraperitoneally, and blood glucose was measured at 15, 30, 60, 90 and 0 min after glucose administration. According to the blood glucose values measured at different time points, the blood glucose concentration-time curve was plotted, and the AUC0˜90min of each dose group was calculated, and the experimental results are shown in Table 7 and FIGS. 3-4

[3] = tested on: normal C57BL/6 mice; assay: glucose tolerance in normal C57BL/6 mice (Example 7); settings: 3 nmol/kg s.c. single dose, 72 h after dose
Procedure: Experimental methods: Normal C57BL/6 mice were randomly divided into 6 groups (Vehicle group, Dulaglutide group, HEC-G123 group, HEC-G128 group, HEC-G131 group, HEC-G132 group) according to blood glucose and body weight, with 8 mice in each group. For the groups of Dulaglutide, HEC-G123, HEC-G128, HEC-G131 and HEC-G132, the corresponding drug was injected subcutaneously into the mice at a dose of 3 nmol/kg, and for the control group, the corresponding vehicle was injected subcutaneously.
as §1, with “60,” for “60, 90”, “6” for “7”, “1-2.” for “3-4”

[4] = blood glucose concentration-time curve

Question: With Dulaglutide [reference compound] as the substance, how does the “Blood glucose value 90 min” value [1] read?
Answer: The value was 6.8 ± 0.6 mM.

Question: What about the “Blood glucose value 0 min” value ([2]; 2 g/kg glucose i.p., 0 min) of the same substance?
Answer: Its value is 4.3 ± 0.4 mM.

Question: And the “Blood glucose value 15 min” value ([2]; 2 g/kg glucose i.p., 15 min)?
Answer: Its value is 15.3 ± 3.1 mM.

Question: And the “Blood glucose value 30 min” value ([2]; 2 g/kg glucose i.p., 30 min)?
Answer: Its value is 15.1 ± 2.7 mM.

Question: What about the “Blood glucose value 60 min” value ([2]; 2 g/kg glucose i.p., 60 min) of the same substance?
Answer: The value was 9.1 ± 1.3 mM.

Question: What about the “Blood glucose value 90 min” value ([2]; 2 g/kg glucose i.p., 90 min) of the same substance?
Answer: The value was 6.8 ± 0.9 mM.

Question: What about the AUC0-90 min [2, 4] of the same substance?
Answer: Its AUC0-90 min is 976.2 ± 135.6 ^a.

Question: And the “Blood glucose value 0 min” value ([3]; 2 g/kg glucose i.p., 0 min)?
Answer: Its value is 4.4 ± 0.8 mM.

Question: What about the “Blood glucose value 15 min” value ([3]; 2 g/kg glucose i.p., 15 min) of the same substance?
Answer: The value was 15.7 ± 2.2 mM.

Question: And the “Blood glucose value 30 min” value ([3]; 2 g/kg glucose i.p., 30 min)?
Answer: The value was 12.7 ± 2.4 mM.

Question: What about the “Blood glucose value 60 min” value ([3]; 2 g/kg glucose i.p., 60 min) of the same substance?
Answer: The value was 8.1 ± 1.0 mM.

Question: What about the AUC0-90 min [3, 4] of the same substance?
Answer: The AUC0-90 min was 899.0 ± 105.4 ^a.

Reference: patent US20250223331A1, “GLP-1/GIP DUAL-TARGETED POLYPEPTIDE AND FUSION PROTEIN AND APPLICATIONS THEREOF” (SUNSHINE LAKE PHARMA CO., LTD., priority 2021, published 2025)
